≈ marks a conversion by molar mass, not a printed value. Calls of active or inactive are those of the source. The rule behind the calls is not given here.
Experiments:
Diaphorina citri [1] = test: Inhibition of reproduction in fifth-instar nymphs of Diaphorina citri in flush of citrus plants assessed as fecundity of egg at 100 ug/ml applied topically; assay type: functional, organism-based
Diaphorina citri [2] = test: Ovicidal activity against Diaphorina citri in 2 to 3 months old citrus plant assessed as inhibition of egg hatch measured 0 to 48 hr after egg laying by leaf dip bioassay; assay type: functional
Diaphorina citri [3] = test: Ovicidal activity against Diaphorina citri in 2 to 3 months old citrus plant assessed as inhibition of egg hatch measured 0 to 48 hr prior egg laying by residual contact bioassay; assay type: functional
Diaphorina citri [4] = test: Induction of morphological abnormalities of fourth and fifth-instar nymphs of Diaphorina citri in flush of citrus plants at 32 to 64 ug/ml after 48 hr; assay type: functional, organism-based
Diaphorina citri [5] = test: Inhibition of reproduction in fifth-instar nymphs of Diaphorina citri in flush of citrus plants assessed as viability of egg at 100 ug/ml measured 0 to 3 days after emergence; assay type: functional, organism-based
Diaphorina citri [6] = test: Insecticidal activity against fifth-instar nymphs of Diaphorina citri nymph in flush of citrus plants assessed as mortality measured on fifth-instar stage after 48 hr; assay type: functional
Diaphorina citri [7] = test: Inhibition of reproduction in fifth-instar nymphs of Diaphorina citri in flush of citrus plants assessed as fecundity of egg at 100 ug/ml measured 0 to 3 days after emergence; assay type: functional, organism-based
Diaphorina citri [8] = test: Insecticidal activity against first-instar nymphs of Diaphorina citri nymph in flush of citrus plants assessed as mortality measured on second-instar stage after 48 hr; assay type: functional
Diaphorina citri [9] = test: Inhibition of reproduction in fifth-instar nymphs of Diaphorina citri in flush of citrus plants assessed as viability of egg at 100 ug/ml measured 4 to 6 days after emergence; assay type: functional, organism-based
Diaphorina citri [10] = test: Inhibition of reproduction in fifth-instar nymphs of Diaphorina citri in flush of citrus plants assessed as fecundity of egg at 32 to 64 ug/ml measured 0 to 3 days after emergence relative to control; assay type: functional; design: scale not given: the % may be the effect or the level left
Diaphorina citri [11] = test: Ovicidal activity against Diaphorina citri in 2 to 3 months old citrus plant assessed as inhibition of egg hatch measured 49 to 96 hr after egg laying by leaf dip bioassay; assay type: functional
Diaphorina citri [12] = test: Inhibition of reproduction in fifth-instar nymphs of Diaphorina citri in flush of citrus plants assessed as fecundity of egg at 32 to 64 ug/ml measured 7 to 12 days after emergence relative to control; assay type: functional, organism-based
Diaphorina citri [13] = test: Inhibition of reproduction in fifth-instar nymphs of Diaphorina citri in flush of citrus plants assessed as fecundity of egg at 100 ug/ml measured 7 to 12 days after emergence; assay type: functional, organism-based
Diaphorina citri [14] = test: Inhibition of reproduction in fifth-instar nymphs of Diaphorina citri in flush of citrus plants assessed as viability of egg at 100 ug/ml measured 7 to 12 days after emergence; assay type: functional, organism-based
Diaphorina citri [15] = test: Inhibition of reproduction in fifth-instar nymphs of Diaphorina citri in flush of citrus plants assessed as viability of egg at 64 ug/ml measured 4 to 6 days after emergence relative to control; assay type: functional
Diaphorina citri [16] = test: Inhibition of reproduction in fifth-instar nymphs of Diaphorina citri in flush of citrus plants assessed as fecundity of egg at 32 to 64 ug/ml measured 4 to 6 days after emergence relative to control; assay type: functional; design: scale not given: the % may be the effect or the level left
Diaphorina citri [17] = test: Insecticidal activity against fourth-instar nymphs of Diaphorina citri nymph in flush of citrus plants assessed as mortality measured on fifth-instar stage after 48 hr; assay type: functional
Diaphorina citri [18] = test: Insecticidal activity against third- instar nymphs of Diaphorina citri nymph in flush of citrus plants assessed as mortality measured on fourth-instar stage after 48 hr; assay type: functional
Diaphorina citri [19] = test: Inhibition of reproduction in fifth-instar nymphs of Diaphorina citri in flush of citrus plants assessed as viability of egg at 32 to 64 ug/ml measured 0 to 3 days after emergence relative to control; assay type: functional
Diaphorina citri [20] = test: Insecticidal activity against second-instar nymphs of Diaphorina citri nymph in flush of citrus plants assessed as mortality measured on third-instar stage after 48 hr; assay type: functional
Diaphorina citri [21] = test: Inhibition of reproduction in fifth-instar nymphs of Diaphorina citri in flush of citrus plants assessed as viability of egg at 100 ug/ml applied topically; assay type: functional, organism-based
Diaphorina citri [22] = test: Ovicidal activity against Diaphorina citri in 2 to 3 months old citrus plant assessed as inhibition of old egg hatch at 64 ug/mL by residual contact bioassay; assay type: functional
Diaphorina citri [23] = test: Insecticidal activity against Diaphorina citri assessed as mortality at 100 ug/ml applied topically; assay type: functional, organism-based
Diaphorina citri [24] = test: Ovicidal activity against Diaphorina citri in 2 to 3 months old citrus plant assessed as inhibition of old egg hatch at 4 to 8 ug/mL by leaf dip bioassay; assay type: functional, organism-based
Diaphorina citri [25] = test: Inhibition of reproduction in fifth-instar nymphs of Diaphorina citri in flush of citrus plants assessed as viability of egg at 64 ug/ml measured 7 to 9 days after emergence relative to control; assay type: functional
Diaphorina citri [26] = test: Inhibition of reproduction in fifth-instar nymphs of Diaphorina citri in flush of citrus plants assessed as viability of egg at 64 ug/ml measured 10 to 12 days after emergence relative to control; assay type: functional, organism-based
Diaphorina citri [27] = test: Ovicidal activity against Diaphorina citri in 2 to 3 months old citrus plant assessed as inhibition of old egg hatch at 128 ug/mL by leaf dip bioassay; assay type: functional; conditions: foliar
Diaphorina citri [28] = test: Inhibition of reproduction in fifth-instar nymphs of Diaphorina citri in flush of citrus plants assessed as fecundity of egg at 100 ug/ml measured 4 to 6 days after emergence; assay type: functional, organism-based

**Q.** Which Activity (Diaphorina citri [1]) does the source give for `CC(COc1ccc(Oc2ccccc2)cc1)Oc1ccccn1` (stereo unspecified) [PYRIPROXYFEN] here?
**A.** Active

**Q.** And the inhibition (Diaphorina citri [2])?
**A.** Dose-dependent effect

**Q.** And the LC50 (Diaphorina citri [2]; foliar)?
**A.** 18.4 µg/mL (≈ 57.4 µM)

**Q.** And the LC50 (Diaphorina citri [3])?
**A.** 32.4 µg/mL (≈ 101 µM)

**Q.** What about the inhibition (Diaphorina citri [3]) of the same compound?
**A.** Dose-dependent effect

**Q.** And the Activity (Diaphorina citri [4])?
**A.** Active

**Q.** And the Activity (Diaphorina citri [5])?
**A.** Active

**Q.** What about the LC50 (Diaphorina citri [6]) of the same compound?
**A.** 51.3 µg/mL (≈ 160 µM)

**Q.** What about the Activity (Diaphorina citri [7]) of the same compound?
**A.** inactive

**Q.** And the LC50 (Diaphorina citri [8])?
**A.** 17.6 µg/mL (≈ 54.8 µM)

**Q.** And the Activity (Diaphorina citri [9])?
**A.** Active

**Q.** What about the Activity (Diaphorina citri [10]) of the same compound?
**A.** 58%

**Q.** What about the inhibition (Diaphorina citri [11]) of the same compound?
**A.** Dose-dependent effect

**Q.** And the LC50 (Diaphorina citri [11]; foliar)?
**A.** 37 µg/mL (≈ 115 µM)

**Q.** And the Activity (Diaphorina citri [12])?
**A.** inactive

**Q.** What about the Activity (Diaphorina citri [13]) of the same compound?
**A.** inactive

**Q.** What about the Activity (Diaphorina citri [14]) of the same compound?
**A.** inactive

**Q.** What about the Activity (Diaphorina citri [15]) of the same compound?
**A.** 59%

**Q.** And the Activity (Diaphorina citri [16])?
**A.** 64%

**Q.** And the LC50 (Diaphorina citri [17])?
**A.** 44.3 µg/mL (≈ 138 µM)

**Q.** And the LC50 (Diaphorina citri [18])?
**A.** 25.2 µg/mL (≈ 78.6 µM)

**Q.** What about the Activity (Diaphorina citri [19]) of the same compound?
**A.** 69%

**Q.** And the LC50 (Diaphorina citri [20])?
**A.** 21.6 µg/mL (≈ 67.1 µM)

**Q.** What about the Activity (Diaphorina citri [21]) of the same compound?
**A.** Active

**Q.** And the inhibition at 64 µg/mL (Diaphorina citri [22])?
**A.** 70%

**Q.** And the Activity (Diaphorina citri [23])?
**A.** inactive

**Q.** What about the inhibition (Diaphorina citri [24]) of the same compound?
**A.** Active

**Q.** And the Activity (Diaphorina citri [25])?
**A.** 83%

**Q.** And the Activity (Diaphorina citri [26])?
**A.** inactive

**Q.** What about the inhibition at 128 µg/mL (Diaphorina citri [27]) of the same compound?
**A.** > 90%

**Q.** What about the Activity (Diaphorina citri [28]) of the same compound?
**A.** Active
